Source: US12221439B2, “Tetrahydropyridopyrimidine derivatives as AhR modulators” (JAGUAHR THERAPEUTICS PTE LTD, priority 2018, dated 2025)

Key:
CYP1A1 = CYP1A1 (Homo sapiens (Human), UniProt P04798); assay: CYP1A1 inhibition assay (Promega P450-Glo, Cypex bactosomes); assay type: biochemical; conditions: direct CYP1A1 inhibition, Luciferin-CEE 30 μM, NADPH, 37° C., arithmetic mean of pIC50
Procedure: In Vitro Assay 22: […] Inhibition Assay
The direct CYP1A1 inhibitory activity of test compounds was also assessed using the Promega P450-Glo™ assay system. Seven concentrations of test compound were added to a ½ area white 96 well plate. Cypex […]. bactosomes ([final] 0.5 pmol) and CYPA substrate Luciferin-CEE ([final] 30 μM) were prepared in 0.1M potassium phosphate buffer and incubated with test compounds at 37° C. for 5 minutes. 0.2m NADPH was then added to the plates and incubated at 37° C., for 10 minutes. The reaction was stopped by adding luciferin detection reagent and luminescence was read after 20 minutes.

AhR = AhR (Homo sapiens (Human), UniProt P35869); assay: AhR antagonism in U937 cells (Promega P450-Glo assay); assay type: cell-based; conditions: inhibition of agonist (KYNA) response, CYP1A1 activity readout (Luciferin-CEE), 24 hrs, arithmetic mean of pIC50
Procedure: Examples were tested in selected biological assays two or more times. Data are reported as the arithmetic mean of the pIC50 (−log10IC50) values, where IC50 is defined as the concentration of compound producing a 50% inhibition of the agonist (KYNA) response.
In Vitro Assay 1: AhR Antagonism in U937 Cells (Promega P450-Glo™ Assay)
AhR antagonism was assessed in U937 cells (myeloid lineage cell line derived from a human histiocytic lymphoma).). Ligand binds the AhR in the cytoplasm, and the AhR-ligand complex translocates to the nucleus and forms a heterodimer with AhR nuclear translocator (Arnt). This complex binds the xenobiotic response element (XRE) in the 5′ upstream region of the CYP1A1 promoter, enhancing CYP1A1 expression. CYP1A1 activity is subsequently determined by assessing the conversion of Luciferin-CEE to luciferin, which in turn reacts with luciferase to produce light. The amount of light produced is directly proportional to cytochrome P450 activity. U937 cells in Ultraculture serum free media (Lonza) were plated at 100,000 cells per well in a round bottom 96 well tissue culture plate. Seven concentrations of test compound (final [DMSO] 1%) were added and incubated for 10 minutes before the addition of […] KYNA. The plates were then placed in an incubator at 37° C., >85% humidity, 5% CO2 for 24 hrs. After aspiration of the supernatant the CYP1A1 substrate Luciferin-CEE ([Final] 83 μM) was added and incubated for 3 hrs before the reaction was stopped by adding luciferin detection reagent and luminescence was read after 20 minutes.

Chain of CYP1A1 (P04798 whole entry): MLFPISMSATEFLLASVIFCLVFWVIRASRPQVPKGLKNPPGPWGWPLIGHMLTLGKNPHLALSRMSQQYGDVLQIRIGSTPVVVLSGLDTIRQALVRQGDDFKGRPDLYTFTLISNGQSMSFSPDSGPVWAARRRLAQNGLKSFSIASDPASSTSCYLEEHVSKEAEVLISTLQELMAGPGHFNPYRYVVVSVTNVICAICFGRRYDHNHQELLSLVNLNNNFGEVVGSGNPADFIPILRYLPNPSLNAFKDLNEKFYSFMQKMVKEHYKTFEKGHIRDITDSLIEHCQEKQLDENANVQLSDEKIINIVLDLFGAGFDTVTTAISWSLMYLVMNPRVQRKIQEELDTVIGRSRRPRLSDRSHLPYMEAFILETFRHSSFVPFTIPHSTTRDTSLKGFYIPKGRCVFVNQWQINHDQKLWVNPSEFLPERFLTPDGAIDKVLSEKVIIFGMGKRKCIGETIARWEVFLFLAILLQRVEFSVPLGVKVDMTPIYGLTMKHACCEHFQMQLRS
Chain of AhR (P35869 11-848): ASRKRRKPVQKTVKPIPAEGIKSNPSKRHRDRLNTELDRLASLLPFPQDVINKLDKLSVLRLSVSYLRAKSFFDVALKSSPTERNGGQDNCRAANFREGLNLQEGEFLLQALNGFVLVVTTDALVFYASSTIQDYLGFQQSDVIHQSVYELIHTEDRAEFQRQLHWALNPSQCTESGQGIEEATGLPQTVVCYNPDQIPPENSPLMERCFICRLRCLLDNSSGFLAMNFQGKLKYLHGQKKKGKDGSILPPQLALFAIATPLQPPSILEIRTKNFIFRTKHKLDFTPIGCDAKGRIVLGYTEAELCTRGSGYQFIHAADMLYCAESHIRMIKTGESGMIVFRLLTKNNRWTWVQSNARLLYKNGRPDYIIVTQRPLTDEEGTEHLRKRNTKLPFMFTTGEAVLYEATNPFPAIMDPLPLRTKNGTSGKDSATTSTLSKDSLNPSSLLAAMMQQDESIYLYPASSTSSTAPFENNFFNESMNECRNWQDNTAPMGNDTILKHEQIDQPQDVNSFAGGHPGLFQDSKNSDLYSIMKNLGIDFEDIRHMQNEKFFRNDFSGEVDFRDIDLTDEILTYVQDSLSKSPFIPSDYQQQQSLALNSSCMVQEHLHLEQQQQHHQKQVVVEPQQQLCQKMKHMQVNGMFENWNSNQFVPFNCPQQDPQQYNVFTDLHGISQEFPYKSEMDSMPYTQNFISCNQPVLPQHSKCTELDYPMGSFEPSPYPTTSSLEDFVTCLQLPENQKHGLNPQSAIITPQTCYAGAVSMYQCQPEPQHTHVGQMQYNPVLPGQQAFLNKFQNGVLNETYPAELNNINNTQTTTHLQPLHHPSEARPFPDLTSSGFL

Structure (SMILES) | cyp1A1 pIC50 (CYP1A1) | IC50 (AhR) [nM] | IC50 (CYP1A1) [nM]
Fc1cncc(-c2nc3c(c(NCCc4nc5ccccc5[nH]4)n2)CNCC3)c1 [Example 28, N-(2-(1H-benzo[d]imidazol-2-yl)ethyl)-2-(5-fluoropyridin-3-yl)-5,6,7,8-tetrahydropyrido[4,3-d]pyrimidin-4-amine] | 5.5 | > 10000 | 
NCC(=O)N1CCc2c(nc(-c3cncc(F)c3)nc2NCCc2c[nH]c3ccccc23)C1 [Example 16, 1-(4-((2-(1H-indol-3-yl)ethyl)amino)-2-(5-fluoropyridin-3-yl)-5,8-dihydropyrido[3,4-d]pyrimidin-7(6H)-yl)-2-aminoethan-1-one] |  | 6.31 | 100
Clc1cncc(-c2nc3c(c(NCCc4c[nH]c5ccccc45)n2)CCNC3)c1 [Example 22, N-(2-(1H-indol-3-yl)ethyl)-2-(5-chloropyridin-3-yl)-5,6,7,8-tetrahydropyrido[3,4-d]pyrimidin-4-amine] |  | 10 | 316
Fc1cncc(-c2nc3c(c(NCCc4c[nH]c5ccccc45)n2)CCNCC3)c1 [Example 17a, N-(2-(1H-indol-3-yl)ethyl)-2-(5-fluoropyridin-3-yl)-6,7,8,9-tetrahydro-5H-pyrimido[4,5-d]azepin-4-amine] | 6.20 | 25.1 | 
CC(=O)N1CCc2c(nc(-c3cncc(F)c3)nc2NCCc2c[nH]c3ccccc23)C1 [Example 1, 1-(4-((2-(1H-indol-3-yl)ethyl)amino)-2-(5-fluoropyridin-3-yl)-5,8-dihydropyrido [3,4-d]pyrimidin-7(6H)-yl)ethan-1-one] | 6.00 | 1.58 | 
Fc1cncc(-c2nc3c(c(NCCc4c[nH]c5ccccc45)n2)CNCC3)c1 [Example 21, N-(2-(1H-indol-3-yl)ethyl)-2-(5-fluoropyridin-3-yl)-5,6,7,8-tetrahydropyrido[4,3-d]pyrimidin-4-amine] | 6.40 | 20 | 
Fc1cncc(-c2nc3c(c(NCCc4c[nH]c5ccccc45)n2)CNC3)c1 [Example 24, N-(2-(1H-indol-3-yl)ethyl)-2-(5-fluoropyridin-3-yl)-6,7-dihydro-5H-pyrrolo[3,4-d]pyrimidin-4-amine] | 6.60 | 12.6 | 
N#CCN1CCc2c(nc(-c3cncc(F)c3)nc2NCCc2c[nH]c3ccccc23)C1 [Example 4, 2-(4-((2-(1H-indol-3-yl)ethyl)amino)-2-(5-fluoropyridin-3-yl)-5,8-dihydropyrido[3,4-d]pyrimidin-7(6H)-yl)acetonitrile] |  | 6.31 | 794
CC1(C)NCCc2c(NCCc3c[nH]c4ccccc34)nc(-c3cncc(F)c3)nc21 [Example 18b, N-(2-(1H-indol-3-yl)ethyl)-2-(5-fluoropyridin-3-yl)-8,8-dimethyl-5,6,7,8-tetrahydropyrido[3,4-d]pyrimidin-4-amine] | 5.90 | 20 | 
Cc1cncc(-c2nc3c(c(NCCc4c[nH]c5ccccc45)n2)CCNC3)c1 [Example 20, N-(2-(1H-indol-3-yl)ethyl)-2-(5-methylpyridin-3-yl)-5,6,7,8-tetrahydropyrido[3,4-d]pyrimidin-4-amine] | 6.40 | 25.1 | 
Cc1cncc(-c2nc3c(c(NCCc4c[nH]c5ccccc45)n2)CNCC3)c1 [Example 26, N-(2-(1H-indol-3-yl)ethyl)-2-(5-methylpyridin-3-yl)-5,6,7,8-tetrahydro pyrido[4,3-d]pyrimidin-4-amine] | 7.2 | 6.17 | 
Fc1cncc(-c2nc3c(c(NCCc4c[nH]c5ccccc45)n2)CCNC3)c1 [Example 8, N-(2-(1H-indol-3-yl)ethyl)-2-(5-fluoropyridin-3-yl)-5,6,7,8-tetrahydropyrido[3,4-d]pyrimidin-4-amine] | 7.00 | 15.8 | 
CN(C)S(=O)(=O)N1CCc2c(nc(-c3cncc(F)c3)nc2NCCc2c[nH]c3ccccc23)C1 [Example 12, 4-((2-(1H-indol-3-yl)ethyl)amino)-2-(5-fluoropyridin-3-yl)-N,N-dimethyl-5,8-dihydropyrido[3,4-d]pyrimidine-7(6H)-sulfonamide] | 6.10 | 1 | 
